What was measured:
[1] = tested on: Peritoneal macrophages from BALB/c mice; assay: Macrophage cytotoxicity, XTT, peritoneal macrophages
Method: Peritoneal macrophages from BALB/c mice were obtained as described before and adjusted to 1×10^6 macrophages/mL and plated in 96-well culture plates (TPP™ test plate, Switzerland), followed by 2 h of incubation (5% CO2 at 37°C). […] Cultures were incubated for 24 h at 37°C in 5% CO2, and non-treated cultures were used as viability control. […] After 4 h of incubation in 5% CO2 at 37°C protected from light, the results were measured as absorbance, determined by spectrophotometry (450/620 nm filter, VersaMax™ ELISA microplate reader) ([28]). […] At least three experiments were performed in quadruplicate.

[2] = tested on: L. amazonensis (strains MHOM/BR/1989/ BA199); design: method as in ref 23 Guimarães et al.; conditions: 72 h, strain MHOM/BR/1989/BA199, ref 23 Guimarães et al.; cited from earlier work
J774A.1 macrophages = assay: Macrophage cytotoxicity, XTT, J774A.1
[3] = tested on: Leishmania amazonensis promastigotes; assay: Change in cell volume and morphology of the parasites (flow cytometry FSC-H/SSC-H, SEM); format: cell-based; conditions: 24 h, lapachol 76.62 µg/mL, β-lapachone 1.63 µg/mL; for Percentage population of the lower left quadrant gate (FSC-H/SSC-H, cell volume): H2O2 2 mM, untreated 93.14%
Method: Promastigote forms (2×10^7 cells) of L. amazonensis untreated (negative control) or treated with 76.62 µg/mL of lapachol and 1.63 µg/mL of β-lapachone were analyzed to observe changes in cell morphology of the parasites induced by the treatment after 24 h of incubation. […] Subsequently, the parasites were analyzed using a BD FacsCalibur flow cytometer (Becton Dickinson, USA) and CellQuest Pro software (Joseph Trotter, Scripps Research Institute, USA), and 10,000 events were acquired. Dot plots were generated, the forward scatter (FSC-H) parameter was analyzed as presenting a correlation with the cell volume.
Scanning electron microscopy (SEM) also was performed to analyze morphological changes in cell surface topography. After 24 h of treatment, the parasites were centrifuged at 576 g for 10 min, and the samples were fixed in 2.5% glutaraldehyde and 0.1 M sodium cacodylate buffer. Poly-L-lysine was used to promote the adhesion of fixed parasites on coverslips. Promastigotes were dehydrated with increasing ethanol concentrations (30-100%), submitted to critical point drying, and metalized with gold for visualization on a Shimadzu 55-550 (Japan) microscope.

[4] = tested on: IL-2, IL-4, IL-6, IFN-γ, TNF-α, IL-17A, IL-10 production in murine macrophages; assay: Cytokine production in supernatant of amastigote assays (CBA Mouse Th1/Th2/Th17 kit); format: cell-based, BALB/c mice; conditions: 24 h; for IL-2, IL-4, IFN-γ, IL-17A, and IL-10 production: macrophages infected with L. amazonensis and treated; for IL-6 levels / TNF-α levels: uninfected and infected treated macrophages, all concentrations tested
Method: For the determination of cytokines, the supernatant of the amastigote assays stored at −80°C was used (MO, macrophages (negative control); MO + L. amazonensis (6 parasites/macrophage); samples treated with lapachol at IC50/2, IC50, and 2× IC50 with L. amazonensis (+) or without (-); the same was repeated for β-lapachone). The supernatant was centrifuged, and a 50 μL aliquot was used to determine cytokine levels (in pg/mL) using the BD Cytometric Bead Array (CBA) Mouse Th1/Th2/Th17 Cytokine kit (BD Life Sciences - Biosciences, USA). The dosage was performed in triplicate and according to the manufacturer's standards. This method is based on a suspension that contains beads, in which encoded fluorescent beads have cytokines that capture antibodies to bind the proteins. The final analysis was performed by flow cytometry using the BD FacsCalibur™ flow cytometer and CellQuest Pro software. The kit allows the measurement of seven distinct populations of Th1, Th2, and Th17 cytokines (IL-2, IL-4, IL-6, IFN-γ, TNF-α, IL-17A, and IL-10) in a single sample.

[5] = tested on: Leishmania amazonensis promastigotes; assay: Promastigote growth inhibition, counting in Neubauer chamber (IC50); format: cell-based, Leishmania amazonensis (MHOM/BR/1977/LTB0016)
Method: Leishmania growth was evaluated after 24 h of incubation at 25°C with the compounds under the same conditions as previously mentioned. Then, 10 µL of the content of each well was added to a 990 µL (1/100) of formalin solution (2%), and the parasites were counted in a Neubauer chamber. The inhibitory concentration (IC50) of promastigotes was calculated by comparing with untreated promastigotes in culture medium. The results were evaluated by linear regression of the inhibition percentage. The selectivity index (SI CC50/IC50) was calculated by the ratio of toxicity concentration to macrophage vs inhibitory concentration to the parasite growth after 24 h incubation ([27]). All assays were performed in triplicate and repeated at least three times.

[6] = tested on: L. amazonensis amastigotes; assay: Activity on intracellular amastigotes in peritoneal macrophages (infection index); conditions: 24 h; for Inhibition of infection rate of amastigotes (infection reduction): vs untreated infected macrophages
Method: The activity of lapachol and β-lapachone on intracellular amastigotes was made on peritoneal macrophages (5×10^5 per well). Cells were seeded onto round glass coverslips within 24-well plates in RPMI 1640 medium and incubated for 2 h at 37°C in 5% CO2. After that, the proportion of 6 parasites (L. amazonensis) per macrophage were added, and cultures were incubated for 4 h at 37°C in 5% CO2. Free parasites were removed by washing with RPMI 1640 medium. The infected macrophages were incubated with lapachol (82.28, 41.14, and 20.57 µg/mL) and β-lapachone (3.26, 1.63, and 0.815 µg/mL) for 24 h at 37°C. After the incubation time, the coverslips were removed, washed, stained with Fast Panoptic, and fixed on glass slides with Entellan. […] The experiments were done twice in triplicate, and treated uninfected cells were used as the cytotoxicity control and non-treated infected cells were used as the positive control of infection. The number of intracellular amastigotes was determined by counting 200 macrophages by concentration in an optical microscope (binocular biological microscope, mod. BA310E LED, Motic, Spain). The infection index was calculated by multiplying the percentage of infected macrophages by the number of parasites per macrophages ([29]).

[7] = tested on: L. amazonensis promastigotes; assay: Externalized phosphatidylserine, annexin V-FITC/PI; format: cell-based, Leishmania amazonensis; conditions: lapachol 76.62 µg/mL, β-lapachone 1.63 µg/mL; for Annexin labeling (AnV+, PI-): 4 h; for Annexin labeling (AnV+, PI-), change on longer incubation: 24 h
Method: […] After treatment, the cells were centrifuged (901 g for 10 min) at room temperature and washed in PBS. According to the manufacturer's instructions, annexin V-FITC and PI (Sigma-Aldrich) were added. Data were acquired using the BD FacsCalibur™ flow cytometer (FL1 vs FL2) and CellQuest Pro software, with a total of 10,000 events acquired for analysis of results.

[8] = tested on: Leishmania amazonensis promastigotes; assay: Mitochondria membrane potential (ΔΨm), Rh123 flow cytometry; format: cell-based; conditions: for Reduction in ΔΨm: lapachol 76.62 µg/mL, β-lapachone 1.63 µg/mL, H2O2 2 mM; for Variation Index (VI) of Rh123 fluorescence, (MT−MC)/MC: lapachol 76.62 μg/mL, β-lapachone 1.63 μg/mL, PC 2 mM
Method: The ΔΨm was determined using on BD FacsCalibur™ flow cytometer and CellQuest Pro software, with a total of 10.000 events acquired, using a mitochondrial-specific green-fluorescent dye Rh123 ([31]). Briefly, L. amazonensis (2×10^7 parasites/mL) were incubated with lapachol (76.62 µg/mL) and β-lapachone (1.63 µg/mL) for 1, 4, and 24 h at 25°C. After washed with PBS, the parasites were incubated with 5 μg/mL Rh123 for 15 min. After the incubation time, the cells were washed and suspended in PBS for additional incubation of 30 min for analysis. The percentage of fluorescence of Rh123, was determined by the (MT/MC)*100 equation, with MT representing the median fluorescence of the treated parasites and the MC the median fluorescence of negative controls. Alteration in ΔΨm was quantified using an index of variation (IV) obtained by the equation IV = (MT - MC)/MC, where negative IV values correspond to depolarization of the mitochondrial membrane. H2O2 (2 mM) was used as a positive control ([32]).

[9] = Leishmania amazonensis, Macrophage, read-out: Inhibition of infection rate of amastigotes (infection reduction)

Compound	IC50 [2]	Morphological changes of promastigotes (SEM, microscopy) [3]	Percentage population of the lower left quadrant gate (FSC-H/SSC-H, cell volume) [3]	IL-2, IL-4, IFN-γ, IL-17A, and IL-10 production [4]	IL-6 levels [4]	TNF-α levels [4]	Annexin labeling (AnV+, PI-) [7]	Annexin labeling (AnV+, PI-), change on longer incubation [7]	Reduction in ΔΨm ([8]; 1 h)	Variation Index (VI) of Rh123 fluorescence, (MT−MC)/MC ([8]; 1 h)	Reduction in ΔΨm ([8]; 4 h)	Variation Index (VI) of Rh123 fluorescence, (MT−MC)/MC ([8]; 4 h)	Reduction in ΔΨm ([8]; 24 h)	Variation Index (VI) of Rh123 fluorescence, (MT−MC)/MC ([8]; 24 h)	further results
4-hydroxy-3-(3-methylbut-2-enyl)naphthalene-1,2-dione [lapachol]	102 µM	loss of cell volume, rounder shape, flagellar alterations, and cellular shrinkage	82.82%	did not present significant changes	decrease	decrease	8.57%	not possible to observe the increase	44%	-0.44	69%	-0.69	30%	-0.30	Murine macrophage cytotoxicity CC50 ([1]; peritoneal macrophages, 24 h): 41.14 ± 2.17 µg/mL; J774A.1 macrophage cytotoxicity CC50 (J774A.1 macrophages; J774A.1, 24 h): 26.66 ± 8.69 µg/mL; IC50 ([5]; 24 h, value in µM): 316 µM; Promastigotes IC50 ([5]; 24 h incubation, growth inhibition by counting): 76.62 ± 1.21 µg/mL; Inhibition of infection rate of amastigotes (infection reduction) ([6]; 20.57 µg/mL): 34.95%; Inhibition of infection rate of amastigotes (infection reduction) ([6]; 82.28 µg/mL): 83.11%
CC1(C)CCC2=C(O1)c1ccccc1C(=O)C2=O [β-lapachone, 2,2-dimethyl-3,4-dihydrobenzo[h]chromene-5,6-dione]	1.39 µM	loss of cell volume, rounder shape, flagellar alterations, and cellular shrinkage	62.35%	did not present significant changes	decrease	decrease	9.03%	not possible to observe the increase	15%	-0.15	54%	-0.54	98%	-0.98	Selectivity index (SI CC50/IC50) ([1]; murine macrophage CC50 / promastigote IC50, 24 h): 1.97; Therapeutic selectivity index (TSI CC50/LD50) ([1]; murine macrophage CC50 / promastigote LD50, 24 h): 4.94; times more selective than lapachol for Leishmania death (TSI) ([1]; murine macrophages): 9.15 times; times more selective than lapachol for inhibiting the growth of Leishmania culture (SI) ([1]; murine macrophages): 3.65 times; Selectivity index (SI CC50/IC50) (J774A.1 macrophages; J774A.1 macrophage CC50 / promastigote IC50, 24 h): 1.95; Therapeutic selectivity index (TSI CC50/LD50) (J774A.1 macrophages; J774A.1 macrophage CC50 / promastigote LD50, 24 h): 4.89; times more selective than lapachol for Leishmania death (TSI) (J774A.1 macrophages; J774A.1 macrophages): 14 times; times more selective than lapachol for inhibiting the growth of Leishmania culture (SI) (J774A.1 macrophages; J774A.1 macrophages): 5.6 times; IC50 ([5]; Leishmania amazonensis, 24 h, value in µM): 6.73 µM; IC50 ([5]; Leishmania amazonensis, 24 h incubation, growth inhibition by counting): 1.63 ± 0.09 µg/mL; inhibition at 0.815 µg/mL [6, 9]: 80.2%; inhibition at 1.63 µg/mL [6, 9]: 83.2%; inhibition at 3.26 µg/mL [6, 9]: 78.5%

Reference: publication PMC10229078, “In vitro effects of lapachol and β-lapachone against Leishmania amazonensis” (Brazilian Journal of Medical and Biological Research, 2023)
